The test system of test [1] is Staphylococcus aureus. The test is described as follows: Antibacterial activity against Staphylococcus aureus. It counts as functional.
The test system of another test is Streptococcus pyogenes. The test is described as follows: Antibacterial activity against Streptococcus pyogenes. It counts as functional.
A further test deals with Proteus vulgaris. Kind of test: Antibacterial activity against Proteus vulgaris. It counts as functional.
In the next test the test system is Salmonella typhimurium. The test is described as follows: Antibacterial activity against Salmonella typhimurium. It counts as functional, Salmonella enterica subsp. enterica serovar Typhimurium. Particulars: Salmonella enterica.
The subject of test [2] is Klebsiella aerogenes. The test is described as follows: Antibacterial activity against Klebsiella aerogenes. It counts as functional.
In another test the test system is Pseudomonas aeruginosa. Kind of test: Antibacterial activity against Pseudomonas aeruginosa. It counts as functional.
Test [3] concerns Staphylococcus epidermidis. Kind of test: Antibacterial activity against Staphylococcus epidermidis. It counts as functional.
Test [4] relates to Escherichia coli. The test is described as follows: Antibacterial activity against Escherichia coli. It counts as functional.
The next test concerns Candida albicans. The test is described as follows: Antifungal activity against Candida albicans. It counts as functional.
The subject of another test is Enterococcus faecalis. The test is described as follows: Antibacterial activity against Enterococcus faecalis. It counts as functional.
The next test deals with Bacillus subtilis. Kind of test: Antibacterial activity against Bacillus subtilis PTCC 1023 after 18 hrs by two fold serial dilution. Particulars: PTCC 1023, 18 h. It counts as functional.
The test system of another test is Klebsiella pneumoniae. Kind of test: Antibacterial activity against Klebsiella pneumoniae ATCC 10031 after 18 hrs by two fold serial dilution. It counts as functional. Particulars: ATCC 10031, 18 h.
Test [5] concerns Escherichia coli. Kind of test: Antibacterial activity against Escherichia coli ATCC 8739 after 18 hrs by two fold serial dilution. It counts as functional. The conditions noted are these: ATCC 8739, 18 h.
In test [6] the test system is Klebsiella aerogenes. Kind of test: Antibacterial activity against Enterobacter aerogenes PTCC 1221 after 18 hrs by two fold serial dilution. It counts as functional. Particulars: PTCC 1221, 18 h.
Test [7] concerns Staphylococcus aureus. The test is described as follows: Antibacterial activity against Staphylococcus aureus ATCC 6538 after 18 hrs by two fold serial dilution. It counts as functional. The conditions noted are these: ATCC 6538, 18 h.
The test system of test [8] is Staphylococcus epidermidis. Kind of test: Antibacterial activity against Staphylococcus epidermidis ATCC 12228 after 18 hrs by two fold serial dilution. It counts as functional. Particulars: ATCC 12228, 18 h.
Test [9] has as its system Helicobacter pylori. Kind of test: Antibacterial activity against Helicobacter pylori. It counts as functional.
Test [10] concerns Helicobacter pylori. Kind of test: Antibacterial activity against Helicobacter pylori NCTC 11637. It counts as functional.
For test [11], the system named is Escherichia coli. Kind of test: Antibacterial activity against Escherichia coli infected in mouse. It counts as functional.
Test [12] relates to Helicobacter pylori. Kind of test: Antibacterial activity against metronidazole-resistant Helicobacter pylori clinical isolates. It counts as functional.

In brackets after ≈: the same amount, converted by molar mass. Bounds are passed on as bounds.

Take `Cc1nc([N+](=O)[O-])cn1Cc1nn(CNc2ccc(Cl)cc2)c(=S)o1`: the MIC against Staphylococcus aureus [1] was 184 to 2890 µM; against Streptococcus pyogenes, 184 to 2890 µM (≈ 70.1 to 1100 µg/mL).
On to `Cc1ccc(/C=C2\SC(=O)N(CCn3c([N+](=O)[O-])cnc3C)C2=O)cc1`, for which the MIC in the test on Proteus vulgaris lay in the range of 31.2 to 500 µg/mL (≈ 83.9 to 1340 µM); against Salmonella typhimurium it was 31.2 to 500 µg/mL (≈ 83.9 to 1340 µM); against Klebsiella aerogenes [2], 31.2 to 500 µg/mL (≈ 83.9 to 1340 µM); against Pseudomonas aeruginosa it was 31.2 to 500 µg/mL (≈ 83.9 to 1340 µM); with Staphylococcus aureus [1], 31.2 to 500 µg/mL; in test [3], 31.2 to 500 µg/mL (≈ 83.9 to 1340 µM). Further, the MIC in the test on Escherichia coli [4], with Candida albicans and against Enterococcus faecalis was 31.2 to 500 µg/mL (≈ 83.9 to 1340 µM) throughout.
Regarding `CCN1CCN(Cn2nc(Cn3cc([N+](=O)[O-])nc3C)oc2=S)CC1`, the values for the MIC against Staphylococcus aureus [1] and in the test on Streptococcus pyogenes were 184 to 2890 µM and 184 to 2890 µM (≈ 67.6 to 1060 µg/mL), respectively.
In the case of `Cc1nc([N+](=O)[O-])cn1Cc1nn(CNc2ccc(F)cc2)c(=S)o1`, the MIC against Staphylococcus aureus [1] fell in the range of 184 to 2890 µM; in the test on Streptococcus pyogenes, 184 to 2890 µM (≈ 67 to 1050 µg/mL).
On to `Cc1nc([N+](=O)[O-])cn1Cc1nn(CN2CCN(C)CC2)c(=S)o1`, for which the MIC with Staphylococcus aureus [1] was in the range of 184 to 2890 µM; in the test on Streptococcus pyogenes it was 184 to 2890 µM (≈ 65 to 1020 µg/mL).
As for `Cc1cc([N+](=O)[O-])ccc1NCn1nc(Cn2cc([N+](=O)[O-])nc2C)oc1=S`, the MIC in the test with Staphylococcus aureus [1] is 184 to 2890 µM; against Streptococcus pyogenes it was 184 to 2890 µM (≈ 74.6 to 1170 µg/mL).
`COc1ccc(-c2nnc(Sc3c([N+](=O)[O-])ncn3C)s2)cc1`: the MIC with Bacillus subtilis was over 64 µg/mL; against Klebsiella pneumoniae it was over 64 µg/mL; against Escherichia coli [5], over 64 µg/mL; in the test with Klebsiella aerogenes [6], over 64 µg/mL; against Staphylococcus aureus [7], 4 to 32 µg/mL (≈ 11.4 to 91.6 µM).
On to `Cn1cnc([N+](=O)[O-])c1S(=O)(=O)c1nnc(-c2ncc([N+](=O)[O-])n2C)s1`, for which the MIC (against Bacillus subtilis; in test [8]; against Klebsiella pneumoniae; against Escherichia coli [5]; in the test with Staphylococcus aureus [7]) was 2 to 64 µg/mL (≈ 5 to 160 µM) throughout.
For the compound `Cc1ncc([N+](=O)[O-])n1CCNCc1no[n+]([O-])c1C`, the MIC90 against Helicobacter pylori [9] and in the test with Helicobacter pylori [10] was 0.5 to 32 µg/mL (≈ 1.77 to 113 µM) each time.
As for `O=C(O)c1cn(C2CC2)c2cc(N3CCNCC3)c(F)cc2c1=O` [CIPROFLOXACIN], in the test on Escherichia coli [11], the 50% effect level (ED50) was put at a dose of 4.53 mg/kg. In the test on Streptococcus pyogenes, it took 189 µM (≈ 62.6 µg/mL) to inhibit growth (MIC).
`Cc1ncc([N+](=O)[O-])n1CCOc1nonc1-c1ccccc1`: the values for the MIC90 in the test on Helicobacter pylori [9], in the test on Helicobacter pylori [12] and in the test with Helicobacter pylori [10] were 1 to 4 µg/mL (≈ 3.17 to 12.7 µM), 0.5 to 32 µg/mL (≈ 1.59 to 101 µM) and 0.5 to 32 µg/mL (≈ 1.59 to 101 µM), respectively.
`Cc1nonc1CNCCn1c([N+](=O)[O-])cnc1C`: the MIC90 in the test on Helicobacter pylori [9] and with Helicobacter pylori [10] was 0.5 to 32 µg/mL (≈ 1.88 to 120 µM) throughout.
`Cc1ncc([N+](=O)[O-])n1CCN1C(=O)S/C(=C\c2ccco2)C1=O`: the MIC in the test on Proteus vulgaris is 31.2 to 500 µg/mL (≈ 89.7 to 1440 µM); in the test with Salmonella typhimurium, 31.2 to 500 µg/mL (≈ 89.7 to 1440 µM); against Klebsiella aerogenes [2], 31.2 to 500 µg/mL (≈ 89.7 to 1440 µM); in the test on Pseudomonas aeruginosa, 31.2 to 500 µg/mL (≈ 89.7 to 1440 µM); against Staphylococcus aureus [1], 31.2 to 500 µg/mL; in [3], 31.2 to 500 µg/mL (≈ 89.7 to 1440 µM). For the same compound, the MIC against Escherichia coli [4], against Candida albicans and in the test on Enterococcus faecalis was 31.2 to 500 µg/mL (≈ 89.7 to 1440 µM) throughout.
Turning to `Cc1ncc([N+](=O)[O-])n1CCOc1nonc1S(=O)(=O)c1ccccc1`, the results for the MIC90 in the test on Helicobacter pylori [9], against Helicobacter pylori [12] and against Helicobacter pylori [10] were 1 to 4 µg/mL (≈ 2.64 to 10.5 µM), 0.5 to 32 µg/mL (≈ 1.32 to 84.4 µM) and 0.5 to 32 µg/mL (≈ 1.32 to 84.4 µM), respectively.
Regarding `Cn1cnc([N+](=O)[O-])c1Sc1nnc(-c2ncc([N+](=O)[O-])n2C)s1`, the MIC is over 64 µg/mL with Bacillus subtilis; over 64 µg/mL in the test with Klebsiella pneumoniae; over 64 µg/mL against Escherichia coli [5]; over 64 µg/mL in the test on Klebsiella aerogenes [6]; 4 to 32 µg/mL (≈ 10.9 to 86.9 µM) in the test on Staphylococcus aureus [7].
Regarding `Cc1ncc([N+](=O)[O-])n1CCNCc1nonc1C#N`, the MIC90 against Helicobacter pylori [9] and in the test with Helicobacter pylori [10] was 0.5 to 32 µg/mL (≈ 1.8 to 115 µM) in each case.
On to `Cc1nc([N+](=O)[O-])cn1Cc1nn(CNc2ccccc2)c(=S)o1`, for which the MIC against Staphylococcus aureus [1] fell in the range of 184 to 2890 µM; in the test with Streptococcus pyogenes it was 184 to 2890 µM (≈ 63.7 to 1000 µg/mL).
In the case of `Cc1ncc([N+](=O)[O-])n1CCOc1no[n+]([O-])c1-c1ccccc1`, the MIC90 against Helicobacter pylori [9] was in the range of 1 to 4 µg/mL (≈ 3.02 to 12.1 µM); against Helicobacter pylori [12], 0.5 to 32 µg/mL (≈ 1.51 to 96.6 µM); in the test with Helicobacter pylori [10], 0.5 to 32 µg/mL (≈ 1.51 to 96.6 µM).

For the origin of these results see ChEMBL document CHEMBL4304773, “Nitroimidazole-containing compounds and their antibacterial and antitubercular activities” (2019).
